# Data as given in US9233136B2, “4-amino-4-oxobutanoyl peptides as inhibitors of viral replication” (Achillion Pharmaceuticals, Inc., priority 2006, dated 2016).
# Test system: Hepatitis C replicon in Huh-7 cells
# Assay: HCV replicon replication assay (NPT ELISA)
# Assay type: cell-based
# Details: Hepatitis C virus, Huh-7, 72 h
# Procedure: Compounds claimed herein are tested for the ability to inhibit viral replication of the Hepatitis C replicon in cultured cells in which the HCV replicon construct has been incorporated. The HCV replicon system was described by Bartenschlager, et. al (Science, 285, pp. 110-113 (1999)). The replicon system is predictive of in vivo anti-HCV activity; compounds that are active in humans uniformly evidence activity in the replicon assay.
# In this assay HCV replicon containing cells are treated with different concentrations of the test compound to ascertain the ability of the test compound to suppress replication of the HCV replicon. As a positive control, HCV replicon-containing cells are treated with different concentrations of interferon alpha, a known inhibitor of HCV replication. The replicon assay system includes Neomycin Phosphotransferase (NPT) as a component of the replicon itself in order to detect the transcription of replicon gene products in the host cell. Cells in which the HCV replicon is actively replicating have high levels of NPT; the level of NPT is proportional to HCV replication. […] The NPT level of each sample is measured using a captured ELISA.
# A protocol for testing compounds for the ability to inhibit viral replication of the Hepatitis C replicon cultured cells in which the replicon construct has been incorporated, follows.
# The HCV replicon contains, 5′-3′, the HCV-IRES, the neomycin phosphotransferase (neo) gene, the IRES of encephalomyocarditis virus, which directs translation of HCV sequences NS3 to NS5B, and the 3′-NTR. The sequence of the HCV replicon has been deposited in GenBank (Accession no. AJ242652).
# The replicon is transfected into Huh-7 cells using standard methods such as electroporation.
# The cells are then seeded onto 96-well plates at a density of 6000-7500 cells/100 microliters/well (6-7.5×10^5 cells/10 ml/plate). The plates are then incubated at 37° C. in a 5% CO2 incubator.
# HCV replicon-containing cells are rinsed with once PBS once; 2 mls of trypsin are then added. Cells are incubated at 37° C. in a 5% CO2 incubator for 3-5 minutes. 10 mls of complete medium is added to stop the reaction. Cells are blown gently, put into a 15 ml tube, and spun at 1200 rpm for four minutes. The trypsin/medium solution is removed and 5 mls of medium (500 ml DMEM (high glucose)) from BRL catalog #12430-054; 50 mls 10% FBS, 5% Geneticin G418 (50 mg/ml, BRL catalog #10131-035), 5 ml MEM non-essential amino acids (100×BRL #11140-050) and 5 ml pen-strep (BRL #15140-148) is added. The cells and media are mixed carefully
# Cells are plated with screening medium (500 ml DMEM (BRL #21063-029), 50 ml FBS (BRL #10082-147) and 5 ml MEM non-essential amino acid (BRL #11140-050) at 6000-7500 fcells/100 μl/well of 96 well plate (6-7.5×10^5 cells/10 ml/plate). Plates are placed into 37° C. 5% CO2 incubator overnight.
# The following morning, drugs (test compounds or interferon alpha) are diluted in 96 well U bottom plates with media or DMSO/media, depending on the final concentration chosen for screening. Generally for 6 concentrations of each test compounds ranging from 10 micromolar to 0.03 micromolar are applied. 100 μl of the test compound dilution is placed in wells of the 96 well plate containing the HCV replicon cells. Media without drug is added to some wells as a negative controls. DMSO is known to affect cell growth. Therefore, if drugs diluted in DMSO are used, all wells, including negative control (media only) and positive control (interferon alpha) wells, must contain the same concentration of DMSO, for single dose screening. The plates are incubated at 37° C. in a humidified 5% CO2 environment for three days.
# On day four, the NTPII assay is quantitated. The medium is poured from the plates and the plates are washed once in 200 μl of PBS. The PBS is then decanted and the plates tapped in a paper towel to remove any remaining PBS. […]
row,SMILES,EC50
1,"C=CC1CC1(NC(=O)[C@@H]1C[C@@H](Oc2cc(-c3ccccc3)nc3cc(OC)ccc23)CN1C(=O)[C@@H](CC(=O)N1CCCC1)C(C)(C)C)C(=O)O (stereo partly drawn) [Compound 38, 1-((2S,4R)-1-((S)-2-tert-butyl-4-oxo-4-(pyrrolidin-1-yl)butanoyl)-4-(7-methoxy-2-phenylquinolin-4-yloxy)pyrrolidine-2-carboxamido)-2-vinylcyclopropanecarboxylic acid]",> 10 µM
2,"COc1ccc2c(O[C@@H]3C[C@H]4C(=O)N[C@@]5(C(=O)NS(=O)(=O)C6CC6)C[C@@H]5/C=C\CCCCC[C@H](CC(=O)N5CCCCC5)C(=O)N4C3)cc(-c3ccccc3)nc2c1 [Compound 59, (2R,6R,13aR,14aS,16aS,Z)-N-(cyclopropylsulfonyl)-2-(7-methoxy-2-phenylquinolin-4-yloxy)-5,16-dioxo-6-(2-oxo-2-(piperidin-1-yl)ethyl)-1,2,3,5,6,7,8,9,10,11,13a,14,14a,15,16,16a-hexadecahydrocyclopropa[e]pyrrolo[1,2-a] [1,4]diazacyclopentadecine-14a-carboxamide]",< 0.1 µM
3,"C=C[C@@H]1C[C@]1(NC(=O)[C@@H]1C[C@@H](Oc2cc(-c3ccccc3)nc3cc(OC)ccc23)CN1C(=O)[C@@H](CC(=O)N1CCCCC1)C(C)(C)C)C(=O)NS(=O)(=O)C1CC1 [Compound 60, (2S,4R)-1-((S)-2-tert-butyl-4-oxo-4-(piperidin-1-yl)butanoyl)-N-((1R,2S)-1-(cyclopropylsulfonylcarbamoyl)-2-vinylcyclopropyl)-4-(7-methoxy-2-phenylquinolin-4-yloxy)pyrrolidine-2-carboxamide]",< 0.1 µM
4,"C=CC1CC1(NC(=O)[C@@H]1C[C@@H](Oc2cc(-c3ccccc3)nc3cc(OC)ccc23)CN1C(=O)[C@@H](CC(=O)N1CCCc2ccccc21)C(C)(C)C)C(=O)O (stereo partly drawn) [Compound 56, 1-((2S,4R)-1-((S)-2-tert-butyl-4-(3,4-dihydroquinolin-1(2H)-yl)-4-oxobutanoyl)-4-(7-methoxy-2-phenylquinolin-4-yloxy)pyrrolidine-2-carboxamido)-2-vinylcyclopropanecarboxylic acid]",1 to 10 µM
5,"C=CC1CC1(NC(=O)[C@@H]1C[C@@H](Oc2cc(-c3ccccc3)nc3cc(OC)ccc23)CN1C(=O)[C@@H](CC(=O)N1CCC(CNC(=O)OC(C)(C)C)CC1)C(C)(C)C)C(=O)O (stereo partly drawn) [Compound 46, 1-((2S,4R)-1-((S)-4-(4-((tert-butoxycarbonylamino)methyl)piperidin-1-yl)-2-tert-butyl-4-oxobutanoyl)-4-(7-methoxy-2-phenylquinolin-4-yloxy)pyrrolidine-2-carboxamido)-2-vinylcyclopropanecarboxylic acid]",> 10 µM
6,"C=CC1CC1(NC(=O)[C@@H]1C[C@@H](Oc2cc(-c3ccccc3)nc3cc(OC)ccc23)CN1C(=O)[C@@H](CC(=O)N1CCCCC1C(N)=O)C(C)(C)C)C(=O)O (stereo partly drawn) [Compound 44, 1-((2S,4R)-1-((2S)-2-tert-butyl-4-(2-carbamoylpiperidin-1-yl)-4-oxobutanoyl)-4-(7-methoxy-2-phenylquinolin-4-yloxy)pyrrolidine-2-carboxamido)-2-vinylcyclopropanecarboxylic acid]",> 10 µM
7,"C=CC1CC1(NC(=O)[C@@H]1C[C@@H](Oc2cc(-c3ccccc3)nc3cc(OC)ccc23)CN1C(=O)[C@@H](CC(=O)N1CCCCC1)C(C)(C)C)C(=O)NS(=O)(=O)C1CC1 (stereo partly drawn) [Compound 49, (2S,4R)-1-((S)-2-tert-butyl-4-oxo-4-(piperidin-1-yl)butanoyl)-N-(1-(cyclopropylsulfonylcarbamoyl)-2-vinylcyclopropyl)-4-(7-methoxy-2-phenylquinolin-4-yloxy)pyrrolidine-2-carboxamide]",< 0.1 µM
8,"C=CC1CC1(NC(=O)[C@@H]1C[C@@H](Oc2cc(-c3ccccc3)nc3cc(OC)ccc23)CN1C(=O)[C@@H](CC(=O)N1CCN(C)CC1)C(C)(C)C)C(=O)O (stereo partly drawn) [Compound 43, 1-((2S,4R)-1-((S)-2-tert-butyl-4-(4-methylpiperazin-1-yl)-4-oxobutanoyl)-4-(7-methoxy-2-phenylquinolin-4-yloxy)pyrrolidine-2-carboxamido)-2-vinylcyclopropanecarboxylic acid]",> 10 µM
9,"C=CC1CC1(NC(=O)[C@@H]1C[C@@H](Oc2cc(-c3ccccc3)nc3cc(OC)ccc23)CN1C(=O)[C@@H](CC(=O)N1CCCCC1)C(C)(C)C)C(=O)O (stereo partly drawn) [Compound 41, 1-((2S,4R)-1-((S)-2-tert-butyl-4-oxo-4-(piperidin-1-yl)butanoyl)-4-(7-methoxy-2-phenylquinolin-4-yloxy)pyrrolidine-2-carboxamido)-2-vinylcyclopropanecarboxylic acid]",1 to 10 µM
10,"C=CC1CC1(NC(=O)[C@@H]1C[C@@H](Oc2cc(-c3ccccc3)nc3cc(OC)ccc23)CN1C(=O)[C@@H](CC(=O)N1CCCCC1)C(C)(C)C)C(=O)OCC (stereo partly drawn) [Compound 40, ethyl 1-((2S,4R)-1-((S)-2-tert-butyl-4-oxo-4-(piperidin-1-yl)butanoyl)-4-(7-methoxy-2-phenylquinolin-4-yloxy)pyrrolidine-2-carboxamido)-2-vinylcyclopropanecarboxylate]",> 10 µM
11,"COc1ccc2c(O[C@@H]3C[C@H]4C(=O)N[C@]5(C(=O)NS(=O)(=O)C6CC6)C[C@H]5/C=C\CCCCC[C@H](CC(=O)N5CCCCC5)C(=O)N4C3)cc(-c3ccccc3)nc2c1 [Compound 58, (2R,6R,13aS,14aR,16aS,Z)-N-(cyclopropylsulfonyl)-2-(7-methoxy-2-phenylquinolin-4-yloxy)-5,16-dioxo-6-(2-oxo-2-(piperidin-1-yl)ethyl)-1,2,3,5,6,7,8,9,10,11,13a,14,14a,15,16,16a-hexadecahydrocyclopropa[e]pyrrolo[1,2-a] [1,4]diazacyclopentadecine-14a-carboxamide]",< 0.1 µM
12,"C=CC1CC1(NC(=O)[C@@H]1C[C@@H](Oc2cc(-c3ccccc3)nc3cc(OC)ccc23)CN1C(=O)[C@@H](CC(=O)N1CCc2ccccc2C1)C(C)(C)C)C(=O)OCC (stereo partly drawn) [Compound 51, ethyl 1-((2S,4R)-1-((S)-2-tert-butyl-4-(3,4-dihydroisoquinolin-2(1H)-yl)-4-oxobutanoyl)-4-(7-methoxy-2-phenylquinolin-4-yloxy)pyrrolidine-2-carboxamido)-2-vinylcyclopropanecarboxylate]",> 10 µM
13,"C=CC1CC1(NC(=O)[C@@H]1C[C@@H](Oc2cc(-c3ccccc3)nc3cc(OC)ccc23)CN1C(=O)[C@@H](CC(=O)N1CCc2ccccc2C1)C(C)(C)C)C(=O)O (stereo partly drawn) [Compound 57, 1-((2S,4R)-1-((S)-2-tert-butyl-4-(3,4-dihydroisoquinolin-2(1H)-yl)-4-oxobutanoyl)-4-(7-methoxy-2-phenylquinolin-4-yloxy)pyrrolidine-2-carboxamido)-2-vinylcyclopropanecarboxylic acid]",> 10 µM
14,"COc1cc(O[C@@H]2C[C@H]3C(=O)N[C@]4(C(=O)O)C[C@H]4/C=C\CCCCC[C@H](CC(=O)N4CCCCC4)C(=O)N3C2)c2ccc(-c3ccccc3)nc2c1 [Compound 52, (2R,6R,13aS,14aR,16aS,Z)-2-(7-methoxy-2-phenylquinolin-4-yloxy)-5,16-dioxo-6-(2-oxo-2-(piperidin-1-yl)ethyl)-1,2,3,5,6,7,8,9,10,11,13a,14,14a,15,16,16a-hexahydrocyclopropa[e]pyrrolo[1,2-a] [1,4]diazacyclopentadecine-14a-carboxylic acid]",> 10 µM
